Key:
[1] = system: MDA-MB-231; assay: Cell growth inhibition (CellTiter-Glo), MDA-MB-231; format: cell-based, human; conditions: MDA-MB-231 cells, 4 days
Description: (§1) Cell growth inhibitory activity of representative BET bromodomain degraders was determined using CellTiter-Glo® Luminescent Cell Viability Assay. Cells were seeded in 384-well white opaque cell culture plates at a density of 2,000 cells/well with serially diluted compounds and incubated at 37° C. in an atmosphere of 95% air and 5% CO2 for 4 days. Cell viability was determined using the CellTiter-Glo® Luminescent Cell Viability Assay Kit (Promega, Madison, Wis.) according to the manufacture's instruction. Briefly, a volume of CellTiter-Glo® Reagent equal to the volume of cell culture medium was added to each well, and then the plates were incubated at room temperature for 10-20 minutes. The luminescent signal was measured using a Tecan Infinite M1000 multimode microplate reader (Tecan, Morrisville, N.C.). The half maximal inhibitory concentration (IC50) was calculated using the GraphPad Prism 5 software (GraphPad Software, La Jolla, Calif.).

[2] = system: MOLM-13; assay: Cell growth inhibition (CellTiter-Glo), MOLM-13; format: cell-based; conditions: MOLM-13 cells, 4 days
Description: as §1

SMILES | IC50 ([1]; Homo sapiens, MDA-MB-231, 96 h) | IC50 ([2]; Homo sapiens, MOLM-13, 96 h) | IC50 [2] | IC50 [1]
CCn1nc(C2CC2)cc1Nc1nc(C(=O)NCCOCCCc2cccc3c2CN(C2CCC(=O)NC2=O)C3=O)nc2[nH]c3cc(-c4c(C)noc4C)c(OC)cc3c12 (stereo not shown) [Cpd. No. 59] | 24.4 nM | 0.64 nM | – | –
CCn1nc(C2CC2)cc1Nc1nc(C(=O)NCCOCCOCCNc2cccc3c2C(=O)N(C2CCC(=O)NC2=O)C3=O)nc2[nH]c3cc(-c4c(C)noc4C)c(OC)cc3c12 (stereo not shown) [Cpd. No. 13] | 267 nM | – | 8 nM | –
CCn1nc(C2CC2)cc1Nc1nc(C(=O)NCCCOCCOCCOCCNc2cccc3c2CN(C2CCC(=O)NC2=O)C3=O)nc2[nH]c3cc(-c4c(C)noc4C)c(OC)cc3c12 (stereo not shown) [compound 68] | 4.1 nM | 1.2 nM | – | –
CCn1nc(C2CC2)cc1Nc1nc(C(=O)NCCOCCOCCNc2cccc3c2C(=O)N(C2CCC(=O)NC2=O)C3=O)nc2[nH]c3cc(-c4c(C)noc4C)c(OC)cc3c12 (stereo not shown) [compound 65] | – | – | 47.1 nM | 438 nM
CCn1nc(C2CC2)cc1Nc1nc(C(=O)NCCCCNC(=O)COc2cccc3c2C(=O)N(C2CCC(=O)NC2=O)C3=O)nc2[nH]c3cc(-c4c(C)noc4C)c(OC)cc3c12 (stereo not shown) [Cpd. No. 1] | 49.5 nM | 12.2 nM | – | –
CCn1nc(C2CC2)cc1Nc1nc(C(=O)NCCCCCCNc2cccc3c2C(=O)N(C2CCC(=O)NC2=O)C3=O)nc2[nH]c3cc(-c4c(C)noc4C)c(OC)cc3c12 (stereo not shown) [compound 11] | 8 nM | 1.6 nM | – | –
CCn1nc(C2CC2)cc1Nc1nc(CNCCCCNc2cccc3c2CN(C2CCC(=O)NC2=O)C3=O)nc2[nH]c3cc(-c4c(C)noc4C)c(OC)cc3c12 (stereo not shown) [compound 19] | 1420 nM | 379 nM | – | –
CCn1nc(C2CC2)cc1Nc1nc(C(=O)NCCCOCCOCCOCCCNc2cccc3c2CN(C2CCC(=O)NC2=O)C3=O)nc2[nH]c3cc(-c4c(C)noc4C)c(OC)cc3c12 (stereo not shown) [compound 67] | 2 nM | 0.7 nM | – | –
CCn1nc(C2CC2)cc1Nc1nc(C(=O)NCCCCNc2cccc3c2CN(C2CCC(=O)NC2=O)C3=O)nc2[nH]c3cc(-c4c(C)noc4C)c(OC)cc3c12 (stereo not shown) [compound 66] | 275 nM | 47.3 nM | – | –
CCn1nc(C2CC2)cc1Nc1nc(C(=O)NCCCNc2cccc3c2C(=O)N(C2CCC(=O)NC2=O)C3=O)nc2[nH]c3cc(-c4c(C)noc4C)c(OC)cc3c12 (stereo not shown) [Cpd. No. 8] | 57.6 nM | 6.3 nM | – | –
CCn1nc(C2CC2)cc1Nc1nc(CNCCCCNc2cccc3c2C(=O)N(C2CCC(=O)NC2=O)C3=O)nc2[nH]c3cc(-c4c(C)noc4C)c(OC)cc3c12 (stereo not shown) [compound 17] | 330 nM | 115 nM | – | –
CCn1nc(C2CC2)cc1Nc1nc(C(=O)NCCOCCOCCOCCC(=O)Nc2cccc3c2CN(C2CCC(=O)NC2=O)C3=O)nc2[nH]c3cc(-c4c(C)noc4C)c(OC)cc3c12 (stereo not shown) [Cpd. No. 64] | 98.7 nM | 23.6 nM | – | –
CCn1nc(C2CC2)cc1Nc1nc(C(=O)NCCCOCCOCCOCCCNC(=O)COc2cccc3c2C(=O)N(C2CCC(=O)NC2=O)C3=O)nc2[nH]c3cc(-c4c(C)noc4C)c(OC)cc3c12 (stereo not shown) [Cpd. No. 2] | 75.6 nM | 16.3 nM | – | –
CCn1nc(C2CC2)cc1Nc1nc(C(=O)NCCCOCCOCCNc2cccc3c2CN(C2CCC(=O)NC2=O)C3=O)nc2[nH]c3cc(-c4c(C)noc4C)c(OC)cc3c12 (stereo not shown) [compound 69] | 16.1 nM | 2.9 nM | – | –
CCn1nc(C2CC2)cc1Nc1nc(C(=O)NCCOCCOCCOCCOc2cccc3c2C(=O)N(C2CCC(=O)NC2=O)C3=O)nc2[nH]c3cc(-c4c(C)noc4C)c(OC)cc3c12 (stereo not shown) [Cpd. No. 5] | 50 nM | 6.9 nM | – | –
CCn1nc(C2CC2)cc1Nc1nc(C(=O)NCCOCCOCCNc2cccc3c2CN(C2CCC(=O)NC2=O)C3=O)nc2[nH]c3cc(-c4c(C)noc4C)c(OC)cc3c12 (stereo not shown) [compound 23] | 83.4 nM | 16.7 nM | – | –
CCn1nc(C2CC2)cc1Nc1nc(C(=O)NCCCCCc2cccc3c2C(=O)N(C2CCC(=O)NC2=O)C3=O)nc2[nH]c3cc(-c4c(C)noc4C)c(OC)cc3c12 (stereo not shown) [Cpd. No. 60] | 11.2 nM | 1.2 nM | – | –
CCn1nc(C2CC2)cc1Nc1nc(C(=O)NCCOCCOCCOCCOCCCc2cccc3c2CN(C2CCC(=O)NC2=O)C3=O)nc2[nH]c3cc(-c4c(C)noc4C)c(OC)cc3c12 (stereo not shown) [compound 70] | 41 nM | 8.5 nM | – | –

SMILES | IC50 ([1]; Homo sapiens, MDA-MB-231, 96 h) | IC50 ([2]; Homo sapiens, MOLM-13, 96 h) | IC50 [2] | IC50 [1]
CCn1nc(C2CC2)cc1Nc1nc(CNCCCOCCCCOCCCNc2cccc3c2C(=O)N(C2CCC(=O)NC2=O)C3=O)nc2[nH]c3cc(-c4c(C)noc4C)c(OC)cc3c12 (stereo not shown) [compound 21] | 543 nM | 84.6 nM | – | –
CCn1nc(C2CC2)cc1Nc1nc(C(=O)NCCOCCOCCOCCOCCOCCOCCOCCNc2cccc3c2C(=O)N(C2CCC(=O)NC2=O)C3=O)nc2[nH]c3cc(-c4c(C)noc4C)c(OC)cc3c12 (stereo not shown) [compound 16] | 128 nM | 10.2 nM | – | –
CCn1nc(C2CC2)cc1Nc1nc(C(=O)NCCOCCOCCOCCNc2cccc3c2CN(C2CCC(=O)NC2=O)C3=O)nc2[nH]c3cc(-c4c(C)noc4C)c(OC)cc3c12 (stereo not shown) [compound 24] | 74.9 nM | 12.1 nM | – | –
CCn1nc(C2CC2)cc1Nc1nc(C(=O)NCCCOCCOCCOCCCNC(=O)CNc2cccc3c2C(=O)N(C2CCC(=O)NC2=O)C3=O)nc2[nH]c3cc(-c4c(C)noc4C)c(OC)cc3c12 (stereo not shown) [Cpd. No. 3] | 94.8 nM | 18.2 nM | – | –
CCn1nc(C2CC2)cc1Nc1nc(C(=O)NCCOCCOCCC(=O)Nc2cccc3c2CN(C2CCC(=O)NC2=O)C3=O)nc2[nH]c3cc(-c4c(C)noc4C)c(OC)cc3c12 (stereo not shown) [Cpd. No. 63] | 231 nM | 41.5 nM | – | –
CCn1nc(C2CC2)cc1Nc1nc(C(=O)NCCOCCOCCOCCCc2cccc3c2C(=O)N(C2CCC(=O)NC2=O)C3=O)nc2[nH]c3cc(-c4c(C)noc4C)c(OC)cc3c12 (stereo not shown) [Cpd. No. 61] | 69.6 nM | 1.5 nM | – | –
CCn1nc(C2CC2)cc1Nc1nc(C(=O)NCCCCCNc2cccc3c2C(=O)N(C2CCC(=O)NC2=O)C3=O)nc2[nH]c3cc(-c4c(C)noc4C)c(OC)cc3c12 (stereo not shown) [compound 10] | 4.8 nM | 0.9 nM | – | –
CCn1nc(C2CC2)cc1Nc1nc(C(=O)NCCCOCCCCOCCCNc2cccc3c2C(=O)N(C2CCC(=O)NC2=O)C3=O)nc2[nH]c3cc(-c4c(C)noc4C)c(OC)cc3c12 (stereo not shown) [compound 15] | 1.7 nM | 0.7 nM | – | –
CCn1nc(C2CC2)cc1Nc1nc(COCCCCNc2cccc3c2C(=O)N(C2CCC(=O)NC2=O)C3=O)nc2[nH]c3cc(-c4c(C)noc4C)c(OC)cc3c12 (stereo not shown) [compound 18] | 5.4 nM | 2.9 nM | – | –
CCn1nc(C2CC2)cc1Nc1nc(C(=O)NCCOCCNc2cccc3c2C(=O)N(C2CCC(=O)NC2=O)C3=O)nc2[nH]c3cc(-c4c(C)noc4C)c(OC)cc3c12 (stereo not shown) [Cpd. No. 12] | 109 nM | 17.8 nM | – | –
CCn1nc(C2CC2)cc1Nc1nc(C(=O)NCCOCCCc2cccc3c2C(=O)N(C2CCC(=O)NC2=O)C3=O)nc2[nH]c3cc(-c4c(C)noc4C)c(OC)cc3c12 (stereo not shown) [Cpd. No. 62] | 24.7 nM | 3.4 nM | – | –
CCn1nc(C2CC2)cc1Nc1nc(C(=O)NCCOCCNc2cccc3c2CN(C2CCC(=O)NC2=O)C3=O)nc2[nH]c3cc(-c4c(C)noc4C)c(OC)cc3c12 (stereo not shown) [compound 22] | 63.8 nM | 12.4 nM | – | –
CCn1nc(C2CC2)cc1Nc1nc(C(=O)NCCNc2cccc3c2C(=O)N(C2CCC(=O)NC2=O)C3=O)nc2[nH]c3cc(-c4c(C)noc4C)c(OC)cc3c12 (stereo not shown) [Cpd. No. 7] | 453 nM | 65 nM | – | –
CCn1nc(C2CC2)cc1Nc1nc(C(=O)NCCOCCOCCOCCNc2cccc3c2C(=O)N(C2CCC(=O)NC2=O)C3=O)nc2[nH]c3cc(-c4c(C)noc4C)c(OC)cc3c12 (stereo not shown) [compound 14] | 33 nM | 1.2 nM | – | –
CCn1nc(C2CC2)cc1Nc1nc(C(=O)NCCCOCCOCCOCC#Cc2cccc3c2CN(C2CCC(=O)NC2=O)C3=O)nc2[nH]c3cc(-c4c(C)noc4C)c(OC)cc3c12 (stereo not shown) [compound 72] | 4.2 nM | 1.2 nM | – | –
CCn1nc(C2CC2)cc1Nc1nc(C(=O)NCCOCCOCCOCCOCCNc2cccc3c2CN(C2CCC(=O)NC2=O)C3=O)nc2[nH]c3cc(-c4c(C)noc4C)c(OC)cc3c12 (stereo not shown) [compound 25] | 25.1 nM | 3.5 nM | – | –
CCn1nc(C2CC2)cc1Nc1nc(CNCCCOCCOCCOCCCNc2cccc3c2C(=O)N(C2CCC(=O)NC2=O)C3=O)nc2[nH]c3cc(-c4c(C)noc4C)c(OC)cc3c12 (stereo not shown) [compound 20] | 3.2 nM | 0.9 nM | – | –

Reference: patent publication US10633386B2, “BET protein degraders” (THE REGENTS OF THE UNIVERSITY OF MICHIGAN, priority 2016, dated 2020)
